Each structure is given as a SMILES string.

`O=C1N(C(c2ccccc2)c2ccccc2)c2ccccc2C12COc1ccc(F)cc12` (stereo not given) returned a melting point of 182 to 184 °C.

The molecule `O=C(OCc1ccccc1)c1ccc(OC(=O)c2cccc(C(=O)Oc3ccc(C(=O)OCc4ccccc4)cc3)c2)cc1` gave a melting point of 105 to 107 °C.

`O=P(O)(O)C(O)(Cc1c[nH]cn1)P(=O)(O)O` returned a melting point of over 290 °C.

`N[C@H]1CC[C@H](CN2CCC(=C3c4ccccc4Sc4ccc(Cl)cc43)CC2)CC1` gave a melting point of 128 to 135 °C.

For `CCCCN(Cc1ccc(-c2ccccc2-c2nnnn2C(c2ccccc2)(c2ccccc2)c2ccccc2)cc1)c1ncccc1C(=O)OCC`, the melting point was 90 to 94 °C.

On to `Cc1nc(C(C)C)c(Sc2cc(Cl)cc(Cl)c2)n1C`, for which the melting point lay within 95 to 96 °C.

For `O=c1cc(-c2ccccc2)oc(N2CCOCC2)c1`, the melting point is 148 to 150 °C.

Turning to `Cc1c2c(cc3c(-c4ccccc4F)noc13)CC(C(=O)O)O2` (stereo not given), the melting point lay within 188 to 189 °C.

In the case of `Clc1nccc(Nc2cnc3ccccc3c2)n1`, the melting point was in the range of 140 to 143 °C.

`Cc1cc(-c2ccc(C(F)(F)F)cc2)nc(-n2cnc(-c3ccc(S(N)(=O)=O)cc3)c2)n1` came in with a melting point of 323 °C.

As for `CON=Cc1ncn2c1[C@@H]1CCCN1C(=O)c1c(Cl)cccc1-2`, the melting point was 194 to 195 °C.

`CNc1nc(Cl)c(SC)c(N2CCN(c3ccccc3)CC2)n1` gave a melting point of 163 to 164 °C.

For `CCc1cc(O)c2cnn(C(C)=O)c2c1`, the melting point fell in the range of 161 to 163 °C.

`O=C(Nc1ccc(-n2nc(C(F)(F)F)cc2C2CC2)cc1)c1ccc2nccnc2c1` yielded a melting point of 205 to 209 °C.

In turn, `CCCCCCCNC(=O)c1cnc2cccc(C)n2c1=O` came in with a melting point of 118 to 120 °C.

For the molecule `CCOCc1cc(OC)c(-c2ccc(C[C@H](NC(=O)c3c(Cl)cccc3Cl)C(=O)OCC)cc2)c(OC)c1`, the melting point was 91 to 94 °C.

As to `Cc1cc2ccccc2n1Nc1ccncc1F`, the melting point lay in the range of 157 to 158 °C.

In the case of `CCC1(CCCCCl)C(=O)Nc2cc(F)ccc21` (stereo not given), the melting point fell in the range of 95 to 97 °C.

In turn, `COc1ccc2c(c1)Sc1ccccc1C(=O)N2` came in with a melting point of 232 to 234 °C.

`CC(C#Cc1ccc(Oc2ccc(Cc3ccc(F)cc3)cc2)o1)N(O)C(N)=O` (stereo not given) registered a melting point of 145 to 147 °C.

In turn, `COC(=O)c1nc(-c2ccc(C(F)(F)F)cc2)nc(N)c1Cl` came in with a melting point of 204 to 205 °C.

As to `CC(C)c1ccc(C#CC(C)N(O)C(N)=O)cc1` (stereo not given), the melting point was in the range of 154 to 156 °C.

Molecule `Cc1ccc(-c2nc3c(o2)C(=O)c2ccccc2C3=O)cc1` displayed a melting point of over 260 °C.

The molecule `CC(=O)c1ccc2c(c1)oc(=O)n2CCCCl` returned a melting point of 100 to 103 °C.

For the molecule `OCC1C(c2ccc(F)cc2)CCC12C=Cc1ccccc12` (stereo not given), the melting point lay in the range of 84 to 86 °C.

With `OCc1nc(-c2ccc3nc(-c4ccc(Cl)cc4)cn3c2)cs1`, the melting point lay within 190 to 192 °C.

In turn, `CCCN1CCC(Cc2ccc3c(c2)c(Cc2ccc(C(=O)NS(=O)(=O)c4ccccc4C)cc2OC)cn3C)C1=O` (stereo not given) had a melting point of 112 to 122 °C.

On to `COc1ccc2c(c1)c(Cc1nc(-c3ccc(Br)cc3)cs1)c(C)n2Cc1ccc(Br)cc1`, for which the melting point lay within 178 to 179 °C.

`NCC(O)CSc1ccccc1` (stereo not given) gave a melting point of 57 to 61 °C.

In the case of `OCCCC(=C(c1ccccc1)c1ccccc1)c1ccccc1`, the melting point is 128 to 130 °C.

In the case of `C=CCNc1nc(Cl)c2ccn(C)c2n1`, the melting point is 113 to 114 °C.

As for `COC(=O)CNC(=O)NC(CSC(C)=O)Cc1ccccc1` (stereo not given), the melting point stood at 102 °C.

`Cc1ccc(CN2CC=C(/C=C/c3cccc(Cl)c3)CC2)cc1` showed a melting point of 86 to 88 °C.

The molecule `c1ccc(Nc2ccnc3cn[nH]c23)cc1` came in with a melting point of 222 to 224 °C.

`CCC(Cc1ccc(OC)c(S(N)(=O)=O)c1)NC(=O)C(F)(F)F` (stereo not given): the melting point lay within 189 to 192 °C.

These data come from a melting point compilation (Tetko et al.; mined from patent text by program, amines drawn as free bases though some values may be those of a salt).
